Reference: PubChem BioAssay AID330 (DTP/NCI, 2004)
Several values for one entry are separate records, joined by “and”; a condition that tells them apart may be missing. Equal entries are not always repeated. Inconclusive results and toxic doses are left out. How the source made its calls: active means survival T/C of 150% or more; inactive means T/C below 125% in these data.

Tested on: P388 leukemia ip, CD2F1 mice, survival T/C
Test: NCI In Vivo Anticancer Drug Screen. Data for tumor model P388 Leukemia (intraperitoneal) in CD2F1 (CDF1) mice
Settings: endpoint: median survival time, higher = longer survival
Procedure, shortened: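 Mice carrying the transplanted tumor received test compound or vehicle. Survival was recorded in each group, and the value is the treated-group measurement divided by that of the vehicle-treated control group.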

[1] = dose: 50.0 mg/kg/injection, schedule: Q01DX005 (ip), vehicle: Klucel (hydroxypropylcellulose) (HPC)
[2] = dose: 100.0 mg/kg/injection, schedule: Q01DX005 (ip), vehicle: Klucel (hydroxypropylcellulose) (HPC)
[3] = dose: 200.0 mg/kg/injection, schedule: Q01DX005 (ip), vehicle: Klucel (hydroxypropylcellulose) (HPC)
[4] = dose: 25.0 mg/kg/injection, schedule: Q01DX009 (ip), vehicle: Klucel (hydroxypropylcellulose) (HPC)
[5] = dose: 50.0 mg/kg/injection, schedule: Q01DX009 (ip), vehicle: Klucel (hydroxypropylcellulose) (HPC)
[6] = dose: 200.0 mg/kg/injection, schedule: Q01DX009 (ip), vehicle: Klucel (hydroxypropylcellulose) (HPC)
[7] = dose: 100.0 mg/kg/injection, schedule: Q01DX009 (ip), vehicle: Klucel (hydroxypropylcellulose) (HPC)
[8] = dose: 100.0 mg/kg/injection, schedule: Q01DX001 (ip), vehicle: Klucel (hydroxypropylcellulose) (HPC)
[9] = dose: 200.0 mg/kg/injection, schedule: Q01DX001 (ip), vehicle: Klucel (hydroxypropylcellulose) (HPC)
[10] = dose: 400.0 mg/kg/injection, schedule: Q01DX001 (ip), vehicle: Klucel (hydroxypropylcellulose) (HPC)
[11] = dose: 60.0 mg/kg/injection, schedule: Q01DX005 (ip), vehicle: Klucel (hydroxypropylcellulose) (HPC)
[12] = dose: 50.0 mg/kg/injection, schedule: Q01DX005 (ip), vehicle: saline with Tween-80
[13] = dose: 100.0 mg/kg/injection, schedule: Q01DX005 (ip), vehicle: saline with Tween-80
[14] = dose: 200.0 mg/kg/injection, schedule: Q01DX005 (ip), vehicle: saline with Tween-80

Measured: T/C

COP(=O)(CC(=O)NCc1cc(C(C)(C)C)c(O)c(C(C)(C)C)c1)OC
inactive: dose: 50.0 mg/kg/injection, schedule: Q01DX009 (ip), vehicle: saline with Tween-80 110 % of control | dose: 100.0 mg/kg/injection, schedule: Q01DX009 (ip), vehicle: saline with Tween-80 103 % of control | dose: 200.0 mg/kg/injection, schedule: Q01DX009 (ip), vehicle: saline with Tween-80 100 % of control

CCc1cccc2c(NCCCCNc3c4ccccc4nc4c(CC)cccc34)c3ccccc3nc12
inactive: dose: 0.62 mg/kg/injection, schedule: Q## X009 (ip), vehicle: lactic acid 93 % of control | dose: 1.25 mg/kg/injection, schedule: Q## X009 (ip), vehicle: lactic acid 100 % of control | dose: 2.5 mg/kg/injection, schedule: Q## X009 (ip), vehicle: lactic acid 99 % of control | dose: 5.0 mg/kg/injection, schedule: Q## X009 (ip), vehicle: lactic acid 91 % of control

CCCCCCCCCCCCOCC[N+](CCO)(CCO)Cc1ccccc1
inactive: dose: 0.25 mg/kg/injection, schedule: Q01DX009 (ip), vehicle: saline 100 % of control | dose: 0.5 mg/kg/injection, schedule: Q01DX009 (ip), vehicle: saline 100 % of control | dose: 1.0 mg/kg/injection, schedule: Q01DX009 (ip), vehicle: saline 100 % of control

COC(=O)c1nn(-c2ccccc2)c2c1C(=O)c1ccccc1C2=O
inactive: [1] 97 % of control | [2] 92 % of control | [3] 98 % of control

CSC(=N/O)/C(=N\O)SC
inactive: dose: 12.5 mg/kg/injection, schedule: Q01DX009 (ip), vehicle: Klucel (hydroxypropylcellulose) (HPC) 107 % of control | [4] 99 % of control | [5] 100 % of control and 102 % of control | [6] 89 % of control

CC(=O)Nc1ccc(C(=O)O)c([N+](=O)[O-])c1
inactive: [4] 100 % of control | [5] 107 % of control | [7] 102 % of control | [6] 107 % of control

O=C1C2CCC(N1c1ccc(F)cc1)n1c(=O)n(-c3ccccc3)c(=O)n12 (stereo unspecified)
inactive: [8] 104 % of control | [9] 94 % of control | [10] 100 % of control

O=COCC1(c2ccncc2)OCCO1
inactive: dose: 50.0 mg/kg/injection, schedule: Q01DX005 (ip), vehicle: saline 108 % of control | dose: 100.0 mg/kg/injection, schedule: Q01DX005 (ip), vehicle: saline 107 % of control | dose: 200.0 mg/kg/injection, schedule: Q01DX005 (ip), vehicle: saline 99 % of control

COC(=O)CC[C@@H](C)C1CC[C@H]2[C@@H]3CC[C@H]4C=C(O)C(=O)C[C@]4(C)[C@H]3C[C@H](OC(C)=O)[C@]12C (stereo partly specified)
inactive: dose: 100.0 mg/kg/injection, schedule: Q04DX002 (ip), vehicle: Klucel (hydroxypropylcellulose) (HPC) 102 % of control | dose: 200.0 mg/kg/injection, schedule: Q04DX002 (ip), vehicle: Klucel (hydroxypropylcellulose) (HPC) 101 % of control | dose: 400.0 mg/kg/injection, schedule: Q04DX002 (ip), vehicle: Klucel (hydroxypropylcellulose) (HPC) 108 % of control

O=C1OCC/C1=C\NCCCCCCCCN/C=C1\CCOC1=O
inactive: [11] 97 % of control | dose: 120.0 mg/kg/injection, schedule: Q01DX005 (ip), vehicle: Klucel (hydroxypropylcellulose) (HPC) 102 % of control | dose: 240.0 mg/kg/injection, schedule: Q01DX005 (ip), vehicle: Klucel (hydroxypropylcellulose) (HPC) 105 % of control

COc1ccccc1OCC(Cn1c(=O)nc(-c2ccccc2)c2cc(Cl)ccc21)OC(N)=O (stereo unspecified)
inactive: [12] 104 % of control | [13] 100 % of control | [14] 95 % of control

CCN(CC)/C(N)=N/O
inactive: dose: 2.5 mg/kg/injection, schedule: Q01DX009 (ip), vehicle: saline 95 % of control | dose: 5.0 mg/kg/injection, schedule: Q01DX009 (ip), vehicle: saline 104 % of control | dose: 10.0 mg/kg/injection, schedule: Q01DX009 (ip), vehicle: saline 102 % of control

CN(C)P(=O)(N(C)C)N(C)CO
inactive: dose: 50.0 mg/kg/injection, schedule: Q01DX009 (ip), vehicle: saline 98 % of control and 100 % of control | dose: 100.0 mg/kg/injection, schedule: Q01DX009 (ip), vehicle: saline 104 % of control and 110 % of control | dose: 200.0 mg/kg/injection, schedule: Q01DX009 (ip), vehicle: saline 121 % of control and 122 % of control | dose: 400.0 mg/kg/injection, schedule: Q01DX009 (ip), vehicle: saline 86 % of control

C=CCc1cc(/C(CC)=C(/CC)c2ccc(OCCN(CC)CC)c(CC=C)c2)ccc1OCCN(CC)CC
inactive: dose: 50.0 mg/kg/injection, schedule: Q01DX005 (ip), vehicle: saline + Tween-80 + alcohol 99 % of control | dose: 100.0 mg/kg/injection, schedule: Q01DX005 (ip), vehicle: saline + Tween-80 + alcohol 93 % of control | dose: 200.0 mg/kg/injection, schedule: Q01DX005 (ip), vehicle: saline + Tween-80 + alcohol 104 % of control

O=C(Nc1ccc(F)cc1F)Oc1ccc2cc(Br)ccc2c1
inactive: dose: 50.0 mg/kg/injection, schedule: Q01DX009 (ip), vehicle: saline + alcohol 97 % of control | dose: 100.0 mg/kg/injection, schedule: Q01DX009 (ip), vehicle: saline + alcohol 91 % of control | dose: 200.0 mg/kg/injection, schedule: Q01DX009 (ip), vehicle: saline + alcohol 100 % of control

C[N+](C)(C)C1CCC2CCCCC2C1 (stereo unspecified)
inactive: dose: 12.5 mg/kg/injection, schedule: Q04DX003 (ip), vehicle: saline with Tween-80 103 % of control | dose: 25.0 mg/kg/injection, schedule: Q04DX003 (ip), vehicle: saline with Tween-80 100 % of control and 107 % of control and 98 % of control | dose: 50.0 mg/kg/injection, schedule: Q04DX003 (ip), vehicle: saline with Tween-80 100 % of control and 104 % of control and 124 % of control | dose: 100.0 mg/kg/injection, schedule: Q04DX003 (ip), vehicle: saline with Tween-80 98 % of control

COC(=O)C12CCC(CC1C13CCCC(C)(C)C1C(=O)OC3)C(C)C2O (stereo unspecified)
inactive: dose: 100.0 mg/kg/injection, schedule: Q04DX002 (ip), vehicle: saline with Tween-80 96 % of control | dose: 200.0 mg/kg/injection, schedule: Q04DX002 (ip), vehicle: saline with Tween-80 94 % of control | dose: 400.0 mg/kg/injection, schedule: Q04DX002 (ip), vehicle: saline with Tween-80 94 % of control

CCO/C(C)=N/n1c(C)nc2[nH]ncc2c1=O
inactive: dose: 60.0 mg/kg/injection, schedule: Q01DX005 (ip), vehicle: saline with Tween-80 99 % of control | dose: 120.0 mg/kg/injection, schedule: Q01DX005 (ip), vehicle: saline with Tween-80 106 % of control | dose: 240.0 mg/kg/injection, schedule: Q01DX005 (ip), vehicle: saline with Tween-80 106 % of control

COC(=O)c1ccccc1NC(CCN1CCN(CCC(=NC(C)(C)C)Nc2ccccc2C(=O)OC)CC1)=NC(C)(C)C
inactive: [5] 93 % of control | [7] 96 % of control | [6] 92 % of control

COc1c(C)cc(C)c(CBr)c1-c1c(CBr)c(C)cc(C)c1OC
inactive: [8] 95 % of control | [9] 93 % of control | [10] 88 % of control

Nc1c(-c2ncc[nH]2)[nH]c2cc(-c3ncc[nH]3)ccc12
inactive: dose: 15.0 mg/kg/injection, schedule: Q01DX005 (ip), vehicle: Klucel (hydroxypropylcellulose) (HPC) 97 % of control | dose: 30.0 mg/kg/injection, schedule: Q01DX005 (ip), vehicle: Klucel (hydroxypropylcellulose) (HPC) 100 % of control | [11] 99 % of control and 101 % of control

C[C@]12C[C@@H](O)[C@H]3[C@@H](CCC4=C(O)C(=O)CC[C@@]43C)[C@@H]1CC[C@@H]2O
inactive: dose: 12.5 mg/kg/injection, schedule: Q01DX005 (ip), vehicle: Klucel (hydroxypropylcellulose) (HPC) 97 % of control | dose: 25.0 mg/kg/injection, schedule: Q01DX005 (ip), vehicle: Klucel (hydroxypropylcellulose) (HPC) 105 % of control | [1] 101 % of control | [2] 90 % of control | [3] 95 % of control

CCCCN1CC(=O)N2CCCC(c3ccccc3)N2C(=O)C1 (stereo unspecified)
inactive: [12] 103 % of control | [13] 105 % of control | [14] 103 % of control
